Measured values published in patent publication US20200277646A1, “METHOD OF DETERMINING TERPENE-BASED BIOCONTROL AGENTS FOR CANNABIS AND HEMP” (priority 2019, published 2020).

Tests used:
Format in all cases: cell-based
[1] = test system: three mold species and one species of Enterobacteriaceae found on cannabis flowers; assay: Paper inhibition disc trials across several microbial species; settings: paper inhibition discs with terpene dilutions in ethanol; EB species and three mold species
From the text: The method of determining terpene-based biocontrol agents for use on cannabis and hemp include processing steps that include a. Isolate epiphytic microorganisms from cannabis ‘flower wash’ and isolate into pure cultures. b. Grow up individual fungal or bacterial broth cultures with shaking at RT until turbidity is evident; if, possible take OD600 nm reading of turbidity for each culture just prior to plating out serial dilutions onto agar plates to determine ˜CFU/ml. c. Based on CFU data from (b) above, re-inoculate fresh broth cultures for individual cultures monitoring OD600 nm to reach previous data point and make appropriate dilutions to attain complete seeding on agar petri plate. d. While allowing bacterial suspension to be absorbed into agar, prepare terpene-treated Whatman filter paper hole punches by aliquoting 25 μl of either full strength, 1:10 dilution or 1:100 dilution. Dilutions should be made into 1-15% MeOH or 1-2% castile soap. e. […] One terpene per plate at three concentrations with negative control. ii. One microbial culture seeded per plate. f. Allow plates to grow with incubation at 28° C. for overnight and photograph as well as measuring any zones of inhibition. Continue incubation for 2 more days, taking photographs and making measurements after each 24-hr period. g. Repeat steps (c) through (f) for each terpene against all microbial cultures.
These four plates show three mold species and one species of Enterobacteriaceae found on cannabis flowers 1010. One Enterobacteriaceae species sample plate and three mold species sample plates 1020. An Enterobacteriaceae Count Plate referred to herein as EB plate 1022, and mold species sample plates Mold 1 plate 1024, Mold 2 plate 1026, and Mold 3 plate 1028. The indicated colonies were picked and cultured prior to inoculation of agar petri dishes 1030. Paper inhibition discs with terpene dilutions in ethanol were applied immediately after inoculation of the agar plate as described previously 1040
The EB species and three mold species were tested for inhibition with the selected terpenes 1110. The indicated colonies were picked and cultured prior to inoculation of agar petri dishes 1120. Paper inhibition discs with terpene dilutions in ethanol were applied immediately after inoculation of the agar plate as described previously 1130. […] The results of the trials across several microbial species is continued in FIG. 11B.
There was also significant inhibition of bacterial growth by many of the terpenes 1150. Different microbial species were differentially affected by individual terpenes 1160. […]

[2] = test system: mold found on a cannabis flower; assay: Terpene added to known contaminated sample during preparation of the culture plate
From the text: Terpenes can inhibit the growth of mold found on a cannabis flower 840. An effective range is 1-5% with some inhibition at levels as low as 0.1% 850 of one embodiment.

[3] = test system: yeast and mold species from certified reference materials; assay: Paper disc inhibition on agar plates of yeast and mold species from certified reference materials; settings: paper discs, terpene only, 10% and 1% dilutions in ethanol; ethanol-only center disc
Method: Paper discs were added to the plates, and small volumes of terpenes diluted in ethanol were added to the discs 902. The center discs had ethanol only, while ‘1:1’ discs had terpene only 904 and 10% and 1% dilutions of terpene in ethanol were also included 910. […] Many terpenes are likely to have inhibitory effects on microbial growth 940. […] Terpenes microbial growth inhibitor samples 970 include carene, humulene, limonene, ocimene, terpineol, and terpinolene of one embodiment.

| Compound | effectiveness among terpenes tested [1] | inhibition of mold growth ([2]; terpene added at 0.1% to known contaminated sample) | inhibition of mold growth ([2]; terpene added at 1% to known contaminated sample) | inhibition of yeast and mold growth [3] |
| --- | --- | --- | --- | --- |
| CC(C)=CCCC(C)=CC=O [Citral, citral] | the most effective of terpenes tested | – | – | – |
| C=CCc1ccc(O)c(OC)c1 [eugenol] | the most effective of terpenes tested | – | – | – |
| CC(C)=CCC/C(C)=C/CO [geraniol] | the most effective of terpenes tested | – | – | – |
| C=CC(C)(O)CCC=C(C)C (stereo not shown) [linalool] | the most effective of terpenes tested | – | – | – |
| CC1=CCC(=C(C)C)CC1 [terpinolene] | – | significant inhibition of mold growth | significant inhibition of mold growth | the most inhibition |
